{"source": "ChEMBL document CHEMBL3817824", "about": "“Synthesis and biological evaluation of new [1,2,4]triazolo[4,3-a]pyridine derivatives as potential c-Met inhibitors” (Bioorg Med Chem, 2016)", "key": {"[1]": {"target": "Hepatocyte growth factor receptor (Homo sapiens, UniProt P08581)", "test": "Inhibition of c-Met (unknown origin) incubated for 1 hr by spectrophotometric analysis"}, "[2]": {"test": "Cytotoxicity against human MKN45 cells assessed as reduction in cell survival incubated for 3 days by cell titre-glo assay", "assay_type": "functional, cell-based", "conditions": "MKN-45, 72 h"}, "[3]": {"test": "Cytotoxicity against human HuH7 cells assessed as reduction in cell survival incubated for 3 days by cell titre-glo assay", "assay_type": "functional, cell-based", "conditions": "Huh-7, 72 h"}, "NCI-H1975": {"system": "NCI-H1975", "test": "Cytotoxicity against human NCI-H1975 cells assessed as reduction in cell survival incubated for 3 days by cell titre-glo assay", "assay_type": "functional, cell-based", "conditions": "NCI-H1975, 72 h"}, "[4]": {"target": "Tyrosine-protein kinase ABL2 (Homo sapiens, UniProt P42684)", "test": "Inhibition of ARG (unknown origin) incubated for 1 hr by spectrophotometric analysis"}, "[5]": {"target": "Tyrosine-protein kinase receptor UFO (Homo sapiens, UniProt P30530)", "test": "Inhibition of AXL (unknown origin) incubated for 1 hr by spectrophotometric analysis"}, "Ephrin type-A receptor 2": {"target": "Ephrin type-A receptor 2 (Homo sapiens, UniProt P29317)", "test": "Inhibition of ECK (unknown origin) incubated for 1 hr by spectrophotometric analysis"}, "[6]": {"target": "Epidermal growth factor receptor (Homo sapiens, UniProt P00533, L858R/T790M)", "test": "Inhibition of EGFR T790M/L858R mutant (unknown origin) incubated for 1 hr by spectrophotometric analysis", "assay_type": "protein assay"}, "Ephrin type-B receptor 1": {"target": "Ephrin type-B receptor 1 (Homo sapiens, UniProt P54762)", "test": "Inhibition of EPHB1 (unknown origin) incubated for 1 hr by spectrophotometric analysis"}, "[7]": {"target": "Tyrosine-protein kinase Fer (Homo sapiens, UniProt P16591)", "test": "Inhibition of FER (unknown origin) incubated for 1 hr by spectrophotometric analysis"}, "[8]": {"target": "Vascular endothelial growth factor receptor 3 (Homo sapiens, UniProt P35916)", "test": "Inhibition of FLT4 (unknown origin) incubated for 1 hr by spectrophotometric analysis"}, "[9]": {"target": "Fibroblast growth factor receptor 2 (Homo sapiens, UniProt P21802)", "sequence (P21802 whole entry)": "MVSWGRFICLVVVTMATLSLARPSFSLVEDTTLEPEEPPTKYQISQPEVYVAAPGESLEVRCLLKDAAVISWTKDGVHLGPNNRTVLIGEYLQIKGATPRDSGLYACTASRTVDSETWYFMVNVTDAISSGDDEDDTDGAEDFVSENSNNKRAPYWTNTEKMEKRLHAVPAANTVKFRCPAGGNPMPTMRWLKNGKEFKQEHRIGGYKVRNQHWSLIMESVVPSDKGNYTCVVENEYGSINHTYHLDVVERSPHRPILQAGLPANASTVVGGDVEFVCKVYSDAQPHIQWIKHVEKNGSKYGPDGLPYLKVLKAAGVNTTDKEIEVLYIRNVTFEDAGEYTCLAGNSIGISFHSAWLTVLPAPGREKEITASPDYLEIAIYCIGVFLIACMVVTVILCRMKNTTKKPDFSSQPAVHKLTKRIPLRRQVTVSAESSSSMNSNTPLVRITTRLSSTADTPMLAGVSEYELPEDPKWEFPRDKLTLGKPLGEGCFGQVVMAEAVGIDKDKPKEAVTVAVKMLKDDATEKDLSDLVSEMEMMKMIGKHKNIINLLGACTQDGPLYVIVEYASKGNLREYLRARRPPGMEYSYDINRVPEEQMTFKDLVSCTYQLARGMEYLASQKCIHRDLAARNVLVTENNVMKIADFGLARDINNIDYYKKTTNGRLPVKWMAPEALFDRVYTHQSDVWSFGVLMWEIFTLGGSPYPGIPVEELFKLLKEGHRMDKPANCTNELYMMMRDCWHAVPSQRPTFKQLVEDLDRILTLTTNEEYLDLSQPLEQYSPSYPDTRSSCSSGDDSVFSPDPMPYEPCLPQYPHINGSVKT", "test": "Inhibition of FGFR2 (unknown origin) incubated for 1 hr by spectrophotometric analysis"}, "[10]": {"target": "Fibroblast growth factor receptor 3 (Homo sapiens, UniProt P22607)", "sequence (P22607 whole entry)": "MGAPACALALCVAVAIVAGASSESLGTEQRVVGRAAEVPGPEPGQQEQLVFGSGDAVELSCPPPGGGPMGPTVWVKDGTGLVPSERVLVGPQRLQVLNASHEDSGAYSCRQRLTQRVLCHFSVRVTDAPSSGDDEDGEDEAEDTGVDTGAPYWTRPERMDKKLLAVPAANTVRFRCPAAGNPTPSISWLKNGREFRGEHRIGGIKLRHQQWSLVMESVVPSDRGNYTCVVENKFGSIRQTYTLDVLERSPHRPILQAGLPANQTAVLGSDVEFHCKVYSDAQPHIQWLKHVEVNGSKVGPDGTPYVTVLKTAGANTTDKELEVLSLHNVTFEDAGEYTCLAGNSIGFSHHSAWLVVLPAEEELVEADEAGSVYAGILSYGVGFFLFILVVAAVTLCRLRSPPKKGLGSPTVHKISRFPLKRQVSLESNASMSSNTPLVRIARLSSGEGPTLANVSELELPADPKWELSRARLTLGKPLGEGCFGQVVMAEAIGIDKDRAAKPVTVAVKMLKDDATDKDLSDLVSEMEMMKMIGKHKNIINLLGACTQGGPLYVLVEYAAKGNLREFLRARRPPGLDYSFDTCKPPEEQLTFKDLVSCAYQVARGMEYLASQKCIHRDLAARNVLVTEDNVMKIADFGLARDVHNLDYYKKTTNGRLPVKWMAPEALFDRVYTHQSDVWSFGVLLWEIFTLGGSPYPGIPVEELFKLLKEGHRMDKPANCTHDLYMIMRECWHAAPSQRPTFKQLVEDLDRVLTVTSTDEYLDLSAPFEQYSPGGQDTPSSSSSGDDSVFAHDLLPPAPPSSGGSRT", "test": "Inhibition of FGFR3 (unknown origin) incubated for 1 hr by spectrophotometric analysis"}, "[11]": {"target": "Receptor tyrosine-protein kinase erbB-2 (Homo sapiens, UniProt P04626)", "sequence (P04626 whole entry)": "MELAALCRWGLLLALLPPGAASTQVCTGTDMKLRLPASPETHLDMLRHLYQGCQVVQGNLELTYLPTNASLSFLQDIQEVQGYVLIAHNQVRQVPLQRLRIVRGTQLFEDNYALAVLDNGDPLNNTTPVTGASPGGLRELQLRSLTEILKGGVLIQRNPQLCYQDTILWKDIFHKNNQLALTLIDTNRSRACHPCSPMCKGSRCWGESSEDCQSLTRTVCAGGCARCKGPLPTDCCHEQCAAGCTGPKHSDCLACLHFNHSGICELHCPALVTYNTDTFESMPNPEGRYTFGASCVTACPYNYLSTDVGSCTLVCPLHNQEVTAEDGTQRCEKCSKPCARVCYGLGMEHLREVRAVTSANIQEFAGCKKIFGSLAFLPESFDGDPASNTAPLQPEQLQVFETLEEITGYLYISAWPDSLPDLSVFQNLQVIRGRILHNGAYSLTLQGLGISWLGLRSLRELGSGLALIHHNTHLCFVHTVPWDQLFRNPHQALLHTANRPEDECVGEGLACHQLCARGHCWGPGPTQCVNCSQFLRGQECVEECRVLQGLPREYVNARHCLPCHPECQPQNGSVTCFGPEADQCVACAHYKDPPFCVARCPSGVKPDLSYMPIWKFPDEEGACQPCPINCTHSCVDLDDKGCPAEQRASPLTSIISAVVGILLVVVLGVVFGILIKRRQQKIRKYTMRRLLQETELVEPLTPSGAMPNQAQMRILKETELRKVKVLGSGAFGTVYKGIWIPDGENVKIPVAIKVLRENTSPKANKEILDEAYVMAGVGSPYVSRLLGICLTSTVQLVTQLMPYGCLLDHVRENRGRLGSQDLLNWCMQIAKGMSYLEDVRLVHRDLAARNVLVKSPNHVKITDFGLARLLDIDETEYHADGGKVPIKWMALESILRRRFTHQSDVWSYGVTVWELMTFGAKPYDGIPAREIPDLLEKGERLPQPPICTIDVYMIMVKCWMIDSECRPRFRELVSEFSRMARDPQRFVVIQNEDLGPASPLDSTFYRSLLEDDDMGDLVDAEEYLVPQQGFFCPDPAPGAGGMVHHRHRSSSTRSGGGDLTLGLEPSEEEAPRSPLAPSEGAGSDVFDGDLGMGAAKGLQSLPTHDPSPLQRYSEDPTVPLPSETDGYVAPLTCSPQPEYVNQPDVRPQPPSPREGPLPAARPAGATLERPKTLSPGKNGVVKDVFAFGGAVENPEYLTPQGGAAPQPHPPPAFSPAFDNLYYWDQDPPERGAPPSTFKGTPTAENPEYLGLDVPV", "test": "Inhibition of HER2 (unknown origin) incubated for 1 hr by spectrophotometric analysis"}, "[12]": {"target": "Receptor tyrosine-protein kinase erbB-4 (Homo sapiens, UniProt Q15303)", "sequence (Q15303 whole entry)": "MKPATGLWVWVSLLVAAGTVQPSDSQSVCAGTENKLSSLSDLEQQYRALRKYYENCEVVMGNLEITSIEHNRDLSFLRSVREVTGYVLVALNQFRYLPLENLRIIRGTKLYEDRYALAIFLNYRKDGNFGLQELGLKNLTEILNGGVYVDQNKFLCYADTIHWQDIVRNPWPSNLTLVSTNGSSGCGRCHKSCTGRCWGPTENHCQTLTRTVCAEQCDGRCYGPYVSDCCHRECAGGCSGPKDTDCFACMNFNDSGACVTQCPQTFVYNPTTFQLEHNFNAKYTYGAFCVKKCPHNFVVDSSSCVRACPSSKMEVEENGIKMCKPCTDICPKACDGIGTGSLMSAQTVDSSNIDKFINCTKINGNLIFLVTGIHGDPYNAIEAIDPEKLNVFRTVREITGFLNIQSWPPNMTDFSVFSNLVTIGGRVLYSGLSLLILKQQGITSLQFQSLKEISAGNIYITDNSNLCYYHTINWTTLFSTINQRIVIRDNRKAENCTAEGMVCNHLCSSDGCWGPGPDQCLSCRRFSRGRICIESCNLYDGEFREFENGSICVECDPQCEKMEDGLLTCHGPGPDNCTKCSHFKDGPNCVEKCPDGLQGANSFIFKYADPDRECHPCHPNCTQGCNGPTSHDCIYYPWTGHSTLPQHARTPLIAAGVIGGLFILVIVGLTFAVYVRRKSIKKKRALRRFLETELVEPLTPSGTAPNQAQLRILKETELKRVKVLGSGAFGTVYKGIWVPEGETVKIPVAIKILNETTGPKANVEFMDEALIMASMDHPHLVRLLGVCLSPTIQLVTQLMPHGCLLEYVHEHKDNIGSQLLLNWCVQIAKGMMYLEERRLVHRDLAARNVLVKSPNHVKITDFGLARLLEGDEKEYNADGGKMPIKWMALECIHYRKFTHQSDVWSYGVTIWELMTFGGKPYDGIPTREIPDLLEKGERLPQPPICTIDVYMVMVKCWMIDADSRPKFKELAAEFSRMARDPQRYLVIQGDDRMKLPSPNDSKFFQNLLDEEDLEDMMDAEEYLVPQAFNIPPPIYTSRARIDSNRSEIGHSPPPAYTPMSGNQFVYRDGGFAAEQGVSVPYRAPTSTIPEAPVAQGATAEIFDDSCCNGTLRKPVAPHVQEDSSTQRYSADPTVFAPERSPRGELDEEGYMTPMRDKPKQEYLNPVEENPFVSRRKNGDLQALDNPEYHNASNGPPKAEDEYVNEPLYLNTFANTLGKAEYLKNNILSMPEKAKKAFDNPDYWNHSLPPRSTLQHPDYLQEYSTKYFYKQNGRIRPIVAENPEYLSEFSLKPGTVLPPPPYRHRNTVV", "test": "Inhibition of HER4 (unknown origin) incubated for 1 hr by spectrophotometric analysis"}, "[13]": {"target": "Insulin-like growth factor 1 receptor (Homo sapiens, UniProt P08069)", "test": "Inhibition of IGF-1R (unknown origin) incubated for 1 hr by spectrophotometric analysis"}, "[14]": {"target": "Vascular endothelial growth factor receptor 2 (Homo sapiens, UniProt P35968)", "test": "Inhibition of KDR (unknown origin) incubated for 1 hr by spectrophotometric analysis"}, "[15]": {"target": "Leukocyte tyrosine kinase receptor (Homo sapiens, UniProt P29376)", "test": "Inhibition of LTK (unknown origin) incubated for 1 hr by spectrophotometric analysis"}, "[16]": {"target": "Tyrosine-protein kinase Lyn (Homo sapiens, UniProt P07948)", "sequence (P07948 whole entry)": "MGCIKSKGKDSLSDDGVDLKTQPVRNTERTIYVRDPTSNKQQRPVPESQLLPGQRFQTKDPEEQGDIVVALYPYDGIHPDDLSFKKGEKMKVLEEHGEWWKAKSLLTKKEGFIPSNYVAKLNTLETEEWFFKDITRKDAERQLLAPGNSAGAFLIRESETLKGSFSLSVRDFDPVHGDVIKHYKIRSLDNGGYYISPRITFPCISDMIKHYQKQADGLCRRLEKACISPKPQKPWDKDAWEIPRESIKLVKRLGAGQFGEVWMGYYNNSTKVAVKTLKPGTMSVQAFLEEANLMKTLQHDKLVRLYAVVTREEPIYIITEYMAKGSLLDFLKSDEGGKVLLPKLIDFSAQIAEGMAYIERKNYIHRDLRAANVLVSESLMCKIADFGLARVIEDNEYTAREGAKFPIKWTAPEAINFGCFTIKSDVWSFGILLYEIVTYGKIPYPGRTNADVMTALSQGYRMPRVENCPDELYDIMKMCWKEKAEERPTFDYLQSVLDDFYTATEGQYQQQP", "test": "Inhibition of LYNA (unknown origin) incubated for 1 hr by spectrophotometric analysis"}, "[17]": {"target": "Muscle, skeletal receptor tyrosine-protein kinase (Homo sapiens, UniProt O15146)", "test": "Inhibition of MUSK (unknown origin) incubated for 1 hr by spectrophotometric analysis"}, "[18]": {"target": "Platelet-derived growth factor receptor alpha (Homo sapiens, UniProt P16234)", "test": "Inhibition of PDGFRalpha (unknown origin) incubated for 1 hr by spectrophotometric analysis"}, "[19]": {"target": "Platelet-derived growth factor receptor beta (Homo sapiens, UniProt P09619)", "test": "Inhibition of PDGFRbeta (unknown origin) incubated for 1 hr by spectrophotometric analysis"}, "[20]": {"target": "Protein kinase C alpha type (Homo sapiens, UniProt P17252)", "test": "Inhibition of PKCalpha (unknown origin) incubated for 1 hr by spectrophotometric analysis"}, "[21]": {"target": "Macrophage-stimulating protein receptor (Homo sapiens, UniProt Q04912)", "test": "Inhibition of RON (unknown origin) incubated for 1 hr by spectrophotometric analysis"}, "[22]": {"target": "Proto-oncogene tyrosine-protein kinase ROS (Homo sapiens, UniProt P08922)", "test": "Inhibition of ROS (unknown origin) incubated for 1 hr by spectrophotometric analysis"}, "[23]": {"target": "Proto-oncogene tyrosine-protein kinase Src (Homo sapiens, UniProt P12931)", "test": "Inhibition of SRC (unknown origin) incubated for 1 hr by spectrophotometric analysis"}, "Angiopoietin-1 receptor": {"target": "Angiopoietin-1 receptor (Homo sapiens, UniProt Q02763)", "test": "Inhibition of TIE2 (unknown origin) incubated for 1 hr by spectrophotometric analysis"}}}
{"smiles": "CN1C(=O)COc2c1cnc1ccc(Sc3nnc4c(F)cc(-c5cnn(C)c5)cn34)cc21", "note": "[DALMELITINIB]", "values": [{"measurement": "IC50", "setting": "[1]", "result": 0.0007, "unit": "µM"}, {"measurement": "IC50", "setting": "[2]", "result": 0.006, "unit": "µM"}, {"measurement": "IC50", "setting": "[3]", "result": "> 10", "unit": "µM"}, {"measurement": "IC50", "setting": "NCI-H1975", "result": "> 10", "unit": "µM"}, {"measurement": "IC50", "setting": "[4]", "result": "> 30", "unit": "µM"}, {"measurement": "IC50", "setting": "[5]", "result": 8.69, "unit": "µM"}, {"measurement": "IC50", "setting": "Ephrin type-A receptor 2", "result": "> 30", "unit": "µM"}, {"measurement": "IC50", "setting": "[6]", "result": "> 30", "unit": "µM"}, {"measurement": "IC50", "setting": "Ephrin type-B receptor 1", "result": "> 30", "unit": "µM"}, {"measurement": "IC50", "setting": "[7]", "result": "> 30", "unit": "µM"}, {"measurement": "IC50", "setting": "[8]", "result": "> 30", "unit": "µM"}, {"measurement": "IC50", "setting": "[9]", "result": "> 30", "unit": "µM"}, {"measurement": "IC50", "setting": "[10]", "result": "> 30", "unit": "µM"}, {"measurement": "IC50", "setting": "[11]", "result": "> 30", "unit": "µM"}, {"measurement": "IC50", "setting": "[12]", "result": "> 30", "unit": "µM"}, {"measurement": "IC50", "setting": "[13]", "result": "> 30", "unit": "µM"}, {"measurement": "IC50", "setting": "[14]", "result": "> 30", "unit": "µM"}, {"measurement": "IC50", "setting": "[15]", "result": "> 30", "unit": "µM"}, {"measurement": "IC50", "setting": "[16]", "result": "> 30", "unit": "µM"}, {"measurement": "IC50", "setting": "[17]", "result": "> 30", "unit": "µM"}, {"measurement": "IC50", "setting": "[18]", "result": "> 30", "unit": "µM"}, {"measurement": "IC50", "setting": "[19]", "result": "> 30", "unit": "µM"}, {"measurement": "IC50", "setting": "[20]", "result": "> 30", "unit": "µM"}, {"measurement": "IC50", "setting": "[21]", "result": "> 30", "unit": "µM"}, {"measurement": "IC50", "setting": "[22]", "result": 2.83, "unit": "µM"}, {"measurement": "IC50", "setting": "[23]", "result": 15.5, "unit": "µM"}, {"measurement": "IC50", "setting": "Angiopoietin-1 receptor", "result": "> 30", "unit": "µM"}]}
